Laboratory results as given in paper PMC11390321 (Cancer chemotherapy and pharmacology, 2024).
Read-outs that look alike come from different tables or passages of the source.

Columns and labels:
[1] = format: in vivo, BALB/c mice; settings: for clearance: CL
[2] = clinical; cited from earlier work
[3] = BALB/c, mouse, bone marrow, iv, 20 mg/kg
[4] = BALB/c, mouse, brain, iv, 20 mg/kg
[5] = BALB/c, mouse, draining lymph node, iv, 20 mg/kg
[6] = BALB/c, mouse, esophagus, iv, 20 mg/kg
[7] = BALB/c, mouse, fat, iv, 20 mg/kg
[8] = BALB/c, mouse, heart, iv, 20 mg/kg
[9] = BALB/c, mouse, kidney, iv, 20 mg/kg
[10] = BALB/c, mouse, liver, iv, 20 mg/kg
[11] = BALB/c, mouse, lung, iv, 20 mg/kg
[12] = BALB/c, mouse, non-draining lymph node, iv, 20 mg/kg
[13] = BALB/c, mouse, plasma, iv, 20 mg/kg
[14] = BALB/c, mouse, red blood cells (RBC), iv, 20 mg/kg
[15] = BALB/c, mouse, skeletal muscle, iv, 20 mg/kg
[16] = BALB/c, mouse, small intestine, iv, 20 mg/kg
[17] = BALB/c, mouse, spinal cord, iv, 20 mg/kg
[18] = BALB/c, mouse, spleen, iv, 20 mg/kg
[19] = BALB/c, mouse, thymus, iv, 20 mg/kg
[20] = BALB/c, mouse, tumor (CT26), iv, 20 mg/kg
[21] = plasma, 20 mg/kg IV-ext, tumor-bearing mice
[22] = unchanged drug, 20 mg/kg IV-ext, tumor-bearing mice

## CNCc1ccc(-c2cc(-c3nc(-c4ccc(S(=O)(=O)C(C)C)cc4)cnc3N)on2)cc1 [berzosertib]
[1]; [3]
  AUC(0-inf): 1110 µg·h/mL
  Cmax: 164000 ng/mL
  Kp: 74.5
  Tmax: 60 min
[1]; BALB/c, mouse, bone marrow, iv, 20 mg/kg, AUC0-t, 20 mg/kg IV, 0–1440 min
  AUC(0-t): 1060 µg·h/mL
[1]; [4]
  AUC(0-inf): 4.52 µg·h/mL
  Cmax: 627 ng/mL
  Kp: 0.297
  Tmax: 15 min
[1]; BALB/c, mouse, brain, iv, 20 mg/kg, AUC0-t, 20 mg/kg IV, 0–1440 min
  AUC(0-t): 4.23 µg·h/mL
[1]; [5]
  AUC(0-inf): 87 µg·h/mL
  Cmax: 12900 ng/mL
  Kp: 5.7
  Tmax: 60 min
[1]; BALB/c, mouse, draining lymph node, iv, 20 mg/kg, AUC0-t, 20 mg/kg IV, 0–1440 min
  AUC(0-t): 80.3 µg·h/mL
[1]; [6]
  AUC(0-inf): 46.7 µg·h/mL
  Cmax: 12100 ng/mL
  Kp: 3.07
  Tmax: 30 min
[1]; BALB/c, mouse, esophagus, iv, 20 mg/kg, AUC0-t, 20 mg/kg IV, 0–1440 min
  AUC(0-t): 43.6 µg·h/mL
[1]; [7]
  AUC(0-inf): 25.2 µg·h/mL
  Cmax: 4280 ng/mL
  Kp: 1.59
  Tmax: 5 min
[1]; BALB/c, mouse, fat, iv, 20 mg/kg, AUC0-t, 20 mg/kg IV, 0–1440 min
  AUC(0-t): 22.6 µg·h/mL
[1]; [8]
  AUC(0-inf): 86.5 µg·h/mL
  Cmax: 31600 ng/mL
  Kp: 5.64
  Tmax: 5 min
[1]; BALB/c, mouse, heart, iv, 20 mg/kg, AUC0-t, 20 mg/kg IV, 0–1440 min
  AUC(0-t): 81.2 µg·h/mL
[1]; [9]
  AUC(0-inf): 873 µg·h/mL
  Cmax: 117000 ng/mL
  Kp: 57.7
  Tmax: 5 min
[1]; BALB/c, mouse, kidney, iv, 20 mg/kg, AUC0-t, 20 mg/kg IV, 0–1440 min
  AUC(0-t): 821 µg·h/mL
[1]; [10]
  AUC(0-inf): 387 µg·h/mL
  Cmax: 79800 ng/mL
  Kp: 25.5
  Tmax: 5 min
[1]; BALB/c, mouse, liver, iv, 20 mg/kg, AUC0-t, 20 mg/kg IV, 0–1440 min
  AUC(0-t): 363 µg·h/mL
[1]; [11]
  AUC(0-inf): 216 µg·h/mL
  Cmax: 45200 ng/mL
  Kp: 13.9
  Tmax: 5 min
[1]; BALB/c, mouse, lung, iv, 20 mg/kg, AUC0-t, 20 mg/kg IV, 0–1440 min
  AUC(0-t): 198 µg·h/mL
[1]; [12]
  AUC(0-inf): 116 µg·h/mL
  Cmax: 20700 ng/mL
  Kp: 7.79
  Tmax: 30 min
[1]; BALB/c, mouse, non-draining lymph node, iv, 20 mg/kg, AUC0-t, 20 mg/kg IV, 0–1440 min
  AUC(0-t): 111 µg·h/mL
[1]; [13]
  AUC(0-inf): 15.1 µg·h/mL
  Cmax: 13300 ng/mL
  Kp: 1
  Tmax: 5 min
  Vd: 11.7 L/kg
  half-life: 367 min
[1]; BALB/c, mouse, plasma, iv, 20 mg/kg, AUC0-t, 20 mg/kg IV-ext, tumor-bearing mice
  AUC(0-t): 14.2 µg·h/mL
[1]; BALB/c, mouse, plasma, iv, 20 mg/kg, AUC0-t, 20 mg/kg IV, 0–1440 min
  AUC(0-t): 14.2 µg·h/mL
[1]; BALB/c, mouse, plasma, iv, 20 mg/kg, AUC0–360, plasma, 20 mg/kg IV-ext, tumor-bearing mice
  AUC(0-t): 9.85 µg·h/mL
[1]; BALB/c, mouse, plasma, iv, 20 mg/kg, calculated using AUC0-∞, 20 mg/kg IV-ext, tumor-bearing mice
  clearance: 22.1 mL/min/kg
[1]; BALB/c, mouse, plasma, iv, 20 mg/kg, calculated using AUC0–360, 20 mg/kg IV-ext, tumor-bearing mice
  clearance: 33.8 mL/min/kg
[1]; [14]
  AUC(0-inf): 5.87 µg·h/mL
  Cmax: 1690 ng/mL
  Kp: 0.389
  Tmax: 5 min
[1]; BALB/c, mouse, red blood cells (RBC), iv, 20 mg/kg, AUC0-t, RBC, 20 mg/kg IV, 0–1440 min
  AUC(0-t): 5.53 µg·h/mL
[1]; [15]
  AUC(0-inf): 41.7 µg·h/mL
  Cmax: 9950 ng/mL
  Kp: 2.77
  Tmax: 15 min
[1]; BALB/c, mouse, skeletal muscle, iv, 20 mg/kg, AUC0-t, Sk. Muscle, 20 mg/kg IV, 0–1440 min
  AUC(0-t): 39.4 µg·h/mL
[1]; [16]
  AUC(0-inf): 209 µg·h/mL
  Cmax: 31300 ng/mL
  Kp: 12.7
  Tmax: 15 min
[1]; BALB/c, mouse, small intestine, iv, 20 mg/kg, AUC0-t, 20 mg/kg IV, 0–1440 min
  AUC(0-t): 181 µg·h/mL
[1]; [17]
  AUC(0-inf): 2.15 µg·h/mL
  Cmax: 307 ng/mL
  Kp: 0.14
  Tmax: 15 min
[1]; BALB/c, mouse, spinal cord, iv, 20 mg/kg, AUC0-t, 20 mg/kg IV, 0–1440 min
  AUC(0-t): 2 µg·h/mL
[1]; [18]
  AUC(0-inf): 306 µg·h/mL
  Cmax: 39000 ng/mL
  Kp: 20.6
  Tmax: 120 min
[1]; BALB/c, mouse, spleen, iv, 20 mg/kg, AUC0-t, 20 mg/kg IV, 0–1440 min
  AUC(0-t): 293 µg·h/mL
[1]; [19]
  AUC(0-inf): 92.9 µg·h/mL
  Cmax: 13500 ng/mL
  Kp: 5.94
  Tmax: 30 min
[1]; BALB/c, mouse, thymus, iv, 20 mg/kg, AUC0-t, 20 mg/kg IV, 0–1440 min
  AUC(0-t): 84.5 µg·h/mL
[1]; BALB/c, mouse, tumor (CT26), intravenous, 20 mg/kg
  Kp: 8.68
[1]; [20]
  AUC(0-inf): 140 µg·h/mL
  Cmax: 13100 ng/mL
  Tmax: 60 min
[1]; BALB/c, mouse, tumor (CT26), iv, 20 mg/kg, AUC0-t, 20 mg/kg IV, 0–1440 min
  AUC(0-t): 124 µg·h/mL
[1]; Plasma, 20 mg/kg IV, observed, mean (SD)
  Cmax: 13.3 (4.91) μg/mL
[1]; plasma, 20 mg/kg IV
  AUC0-∞: 906 µg·min/mL
  Tmax: 5 min
[1]; [21]
  AUC0-t/dose: 42.7
  AUC0-∞ /dose: 45.3
  AUC0–360/dose: 29.6
  AUCextrap: 5.75%
  Tlast: 1440 min
[1]; [22]
  0–24 h feces: 4.13 % dose
  0–24 h urine: 48.4 % dose
[2]
  clinically associated toxicities: bone marrow toxicities including neutropenia, thrombocytopenia, leukocytopenia, lymphocytopenia, and anemia
